“And” between values parts separate entries of the source, which are not always exact repeats. Identical values can stand only once. After the bases stand the sugars from the 5' end (letter, count) and the backbone: PS all phosphorothioate, else s phosphorothioate and o phosphodiester by linkage. Methylation of C is not given here. e = 2'-O-(2-methoxyethyl) (MOE); k = constrained ethyl (cEt); d = 2'-deoxy (DNA); m = 2'-O-methyl

In this data set the target is HSD17B13. The conditions noted are these: ASO, HepaRG.

GTTTATCATGTGCCAC (sugars k3 d10 k3, PS) returned a target mRNA inhibition (0.02 µM) of 0%; a target mRNA inhibition (0.078 µM) of 21%; a target mRNA inhibition (0.313 µM) of 44%; a target mRNA inhibition (1 µM) of 83%; a target mRNA inhibition (1.25 µM) of 76%; a target mRNA inhibition (5 µM) of 94%.

Take GTTTATGTAAGCACAG (sugars k3 d10 k3, PS): the target mRNA inhibition (1 µM) was found to be 67%.

Consider GTTTCAAAAAGGCCCA (sugars k3 d10 k3, PS), for which the target mRNA inhibition (1 µM) was 39%.

As to “GTTTCTTATGTAATAG (sugars k3 d1 m1 d8 k3, PS)”, the target mRNA inhibition (1 µM) amounted to 25%.

In the case of “GTTTTTAAGAGGCATG (sugars k3 d9 k3 e1, PS)”, the target mRNA inhibition (0.02 µM) came out at 12%; the target mRNA inhibition (0.078 µM) worked out at 17%; the target mRNA inhibition (0.313 µM) was determined as 41%; the target mRNA inhibition (1 µM) was determined as 78%; the target mRNA inhibition (1.25 µM) was 64%; the target mRNA inhibition (5 µM) was found to be 82%.

Under “1 µM”, GTTTTTATTGGGCCCA (sugars k3 d10 k3, PS) registered a target mRNA inhibition of 67%.

Regarding TAAAATAGGGTGCAGT (sugars k3 d10 k3, PS), the target mRNA inhibition (1 µM) worked out at 58%.

Regarding TAAAATATGTCCAGGT (sugars k3 d10 k3, PS), the target mRNA inhibition (1 µM) was found to be 75%.

As for “TAAACATCTCTGGGAC (sugars kkdddddddddkekek, PS)”, where the note is “1 µM”, the target mRNA inhibition came out at 39%.

Turning to TAAACTGTATGCCTCT (sugars k3 d10 k3, PS), the target mRNA inhibition (1 µM) turned out to be 49%.

For TAAATCCAAATCACTC (sugars k3 d10 k3, PS), where the note is “1 µM”, the target mRNA inhibition was found to be 39%.

TAACCATAGGACATGG (sugars k3 d10 k3, PS) displayed a target mRNA inhibition (1 µM) of 70%.

TAACGGTGATCAAATG (sugars k3 d10 k3, PS) gave a target mRNA inhibition (1 µM) of 17%.

For the setting “1 µM”, TAACTAACCTGACACA (sugars k3 d10 k3, PS) returned a target mRNA inhibition of 57%.

For the sequence TAACTTCATAGTGGAC (sugars k3 d10 k3, PS), where the note is “1 µM”, the target mRNA inhibition worked out at 76%.

Where the note is “1 µM”, TAAGAGAAGGTGCACA (sugars k3 d10 k3, PS) gave a target mRNA inhibition of 12%.

TAAGAGATGAGTAGGC (sugars k3 d10 k3, PS) yielded a target mRNA inhibition (1 µM) of 46%.

As to “TAAGAGGCATGAAAGG (sugars k3 d9 k3 e1, PS)”, the target mRNA inhibition (1 µM) was 36%.

Consider TAAGAGGCATGAAAGG (sugars k3 d10 k3, PS), for which the target mRNA inhibition (1 µM) came to 52%.

TAAGATACCCAGGTTG (sugars k3 d10 k3, PS) had a target mRNA inhibition (1 µM) of 39%.

Take TAAGCTGAGAGTTCTA (sugars k3 d10 k3, PS): the target mRNA inhibition (1 µM) is 64%.

TAAGGTAAACTAAAGT (sugars k3 d10 k3, PS) yielded a target mRNA inhibition (1 µM) of 9%.

With TAAGTAGATGGTAAGT (sugars k3 d10 k3, PS), the target mRNA inhibition was 5% (0.02 µM); 10% (0.078 µM); 34% (0.313 µM); 74% (1 µM); 72% (1.25 µM); 85% (5 µM).

Take TAAGTTATTATCCCCA (sugars k3 d10 k3, PS): the target mRNA inhibition (1 µM) is 70%.

As to TAATACGACTTCCTTC (sugars k3 d10 k3, PS), the target mRNA inhibition (1 µM) turned out to be 32%.

In turn, “TAATAGCCAGTACAGT (sugars k3 d9 k3 e1, PS)” displayed a target mRNA inhibition (1 µM) of 64%.

For the sequence TAATCTTGAGGCAGGA (sugars k3 d10 k3, PS), for the setting “1 µM”, the target mRNA inhibition came to 17%.

Where the note is “1 µM”, TACACCACACTAATGA (sugars k3 d10 k3, PS) gave a target mRNA inhibition of 26%.

In turn, TACAGACTAAGGGACC (sugars k3 d10 k3, PS) displayed a target mRNA inhibition (1 µM) of 68%.

For the sequence “TACAGATTGGAATGCT (sugars kkdddddddddkekek, PS)”, the target mRNA inhibition (1 µM) was determined as 35%.

Under “1 µM”, TACAGTTCCTTTTCCT (sugars k3 d10 k3, PS) displayed a target mRNA inhibition of 68%.

Regarding TACATCACCCACTTCT (sugars k3 d10 k3, PS), the target mRNA inhibition (1 µM) turned out to be 37%.

Take TACATTACAGCCTTAG (sugars k3 d10 k3, PS): the target mRNA inhibition by setting is: (0.02 µM) 0%; (0.078 µM) 2%; (0.313 µM) 15%; (1 µM) 75%; (1.25 µM) 71%; (5 µM) 85%.

TACATTCTTCAGGTGT (sugars k3 d10 k3, PS) displayed a target mRNA inhibition (1 µM) of 61%.

The sequence TACCAAACTTGCCCAT (sugars k3 d10 k3, PS) registered a target mRNA inhibition (1 µM) of 33%.

Regarding TACCAATATGGGATGA (sugars k3 d10 k3, PS), the target mRNA inhibition (1 µM) turned out to be 1%.

With “TACCUCTAAGTTAGCC (sugars k3 d1 m1 d8 k3, PS)”, the target mRNA inhibition (1 µM) was found to be 13%.

Under “1 µM”, TACGACAGGTCATCTT (sugars k3 d10 k3, PS) returned a target mRNA inhibition of 58%.

For TACGACTTCATCTGTC (sugars k3 d10 k3, PS), under “1 µM”, the target mRNA inhibition amounted to 29%.

As to TACGACTTCCTTCTAA (sugars k3 d10 k3, PS), the target mRNA inhibition (1 µM) turned out to be 67%.

On to TACGCATGCGCAGTGA (sugars k3 d10 k3, PS), for which the target mRNA inhibition (1 µM) worked out at 60%.

For TACTAATGTCCAAGGA (sugars k3 d10 k3, PS), the target mRNA inhibition reads like this: (0.02 µM) 4%; (0.078 µM) 0%; (0.313 µM) 38%; (1 µM) 77%; (1.25 µM) 64%; (5 µM) 75%.

Sequence TACTCTAGGAGATATA (sugars k3 d10 k3, PS) came in with a target mRNA inhibition (1 µM) of 33%.

Regarding TACTTACCAATATGGG (sugars k3 d10 k3, PS), for the setting “1 µM”, the target mRNA inhibition was found to be 13%.

TACTTTTAGGGAGGTA (sugars k3 d10 k3, PS): the target mRNA inhibition (1 µM) turned out to be 28%.

“TACTUGAACAGTCTTA (sugars k3 d1 m1 d8 k3, PS)” came in with a target mRNA inhibition (1 µM) of 38%.

The sequence TAGAAACTGCTCCTCA (sugars k3 d10 k3, PS) showed a target mRNA inhibition (1 µM) of 32%.

Take “TAGAATAGTCTTCAGC (sugars k3 d1 m1 d8 k3, PS)”: for the setting “1 µM”, the target mRNA inhibition worked out at 30%.

Turning to “TAGAGTCGGTCACCTT (sugars k3 d1 m1 d8 k3, PS)”, the target mRNA inhibition (1 µM) was 55%.

In the case of TAGAGTTGCACCGTTT (sugars k3 d10 k3, PS), for the setting “1 µM”, the target mRNA inhibition was determined as 58%.

Where the note is “1 µM”, TAGCAGCTAAAATCCA (sugars k3 d10 k3, PS) had a target mRNA inhibition of 66%.

Where the note is “1 µM”, “TAGCCAGTACAGTTCC (sugars k3 d9 k3 e1, PS)” returned a target mRNA inhibition of 58%.

For “TAGCTGTGCACTCATT (sugars k3 d9 k3 e1, PS)”, the target mRNA inhibition is, setting by setting: (0.02 µM) 3%; (0.078 µM) 0%; (0.313 µM) 8%; (1 µM) 66%; (1.25 µM) 57%; (5 µM) 76%.

Turning to TAGCTGTGCACTCATT (sugars k3 d10 k3, PS), the target mRNA inhibition (1 µM) was found to be 40%.

With TAGGCTAAAATGGTCA (sugars k3 d10 k3, PS), the target mRNA inhibition (1 µM) turned out to be 59%.

As to TAGGCTTAGTGTAGAA (sugars k3 d10 k3, PS), the target mRNA inhibition (1 µM) is 38%.

Where the note is “1 µM”, “TAGTAATCACAAGTAA (sugars k3 d1 m1 d8 k3, PS)” gave a target mRNA inhibition of 38%.

“TAGTAATCACAAGTAA (sugars kkdddddddddkekek, PS)” displayed a target mRNA inhibition (1 µM) of 55%.

In turn, TAGTATAGTTATCTTC (sugars k3 d10 k3, PS) yielded a target mRNA inhibition (1 µM) of 28%.

In turn, “TAGTCTTCAGCAAAGT (sugars k3 d9 k3 e1, PS)” returned a target mRNA inhibition (1 µM) of 36%.

As to TAGTCTTCAGCAAAGT (sugars k3 d10 k3, PS), the target mRNA inhibition (1 µM) came out at 49%.

For the setting “1 µM”, “TAGTCTTGATGTAGTG (sugars k3 d9 k3 e1, PS)” had a target mRNA inhibition of 61%.

On to TAGTGCCAAACCAATG (sugars k3 d10 k3, PS), for which the target mRNA inhibition (1 µM) was 46% and 61%.

As for “TAGTGCCAAACCAATG (sugars kkdddddddddkekek, PS)”, the target mRNA inhibition runs as follows: (0.02 µM) 11%; (0.078 µM) 18%; (0.313 µM) 27%; (1 µM) 66%; (1.25 µM) 53%; (5 µM) 57%.

In turn, “TAGTGGACTTCATTAG (sugars k3 d9 k3 e1, PS)” had a target mRNA inhibition (1 µM) of 22%.

For the sequence “TAGTGTAAGCTGAGAG (sugars k3 d9 k3 e1, PS)”, the target mRNA inhibition came out at 6% (0.02 µM); 13% (0.078 µM); 52% (0.313 µM); 82% (1 µM); 69% (1.25 µM); 79% (5 µM).

TAGTGTAAGCTGAGAG (sugars k3 d10 k3, PS) showed a target mRNA inhibition (0.02 µM) of 0%; a target mRNA inhibition (0.078 µM) of 0%; a target mRNA inhibition (0.313 µM) of 2%; a target mRNA inhibition (1 µM) of 75%; a target mRNA inhibition (1.25 µM) of 48%; a target mRNA inhibition (5 µM) of 83%.

Take TAGTTGGTAGCTTGCT (sugars k3 d10 k3, PS): the target mRNA inhibition is 7% (0.02 µM); 31% (0.078 µM); 46% (0.313 µM); 66% (1 µM); 74% (1.25 µM); 94% (5 µM).

Take TAGTTTGGTGGGCATG (sugars k3 d10 k3, PS): the target mRNA inhibition (1 µM) worked out at 28%.

In turn, TATAACATGGCTGGCA (sugars k3 d10 k3, PS) came in with a target mRNA inhibition (1 µM) of 33%.

On to TATAACTGAGCTAGAC (sugars k3 d10 k3, PS), for which the target mRNA inhibition (1 µM) worked out at 53%.

Regarding TATACAGACTAAGGGA (sugars k3 d10 k3, PS), the target mRNA inhibition (1 µM) stood at 24%.

Sequence TATACATCAACTCCTC (sugars k3 d10 k3, PS) showed a target mRNA inhibition (1 µM) of 39%.

Take TATACCTGTTGCCTAG (sugars k3 d10 k3, PS): the target mRNA inhibition (1 µM) was determined as 11%.

In the case of TATACTGAAGGCTGTG (sugars k3 d10 k3, PS), the target mRNA inhibition (1 µM) is 44%.

Values taken from the OligoGym collection.
